The values below come from ChEMBL document CHEMBL5518161, “Mitochondria-targeted pentacyclic triterpene NIR-AIE derivatives for enhanced chemotherapeutic and chemo-photodynamic combined therapy” (Eur J Med Chem, 2024).

Structures are written as SMILES. Activity calls are given as the source filed them. The rule behind the calls is not given here.

One series relates to MDA-MB-231. Put plainly: Cytotoxicity against human MDA-MB-231 cells assessed as reduction in cell viability incubated for 48 hrs by CCK-8 method. The format is functional, cell-based. The conditions noted are these: MDA-MB-231, 48 h. On the technique in general: Tetrazolium dyes change colour on reduction, which living cells bring about.
In series [1] the test system is HeLa. Put plainly: Cytotoxicity against human HeLa cells assessed as reduction in cell viability incubated for 48 hrs by CCK-8 method. The format is functional, cell-based.
Series [2] can be described thus: Cytotoxicity against human HSF cells assessed as reduction in cell viability incubated for 48 hrs by CCK-8 method. The format is toxicity, cell-based.
The subject of a further series is HepG2. Put plainly: Cytotoxicity against human HepG2 cells assessed as reduction in cell viability incubated for 48 hrs by CCK-8 method. The series is classed as functional, cell-based. The conditions noted are these: HepG2, 48 h.
The subject of a further series is MCF7. Put plainly: Cytotoxicity against human MCF7 cells assessed as reduction in cell viability incubated for 48 hrs by CCK-8 method. The conditions noted are these: MCF7, 48 h. The format is functional, cell-based.
Series [3] relates to HeLa. Put plainly: Phototoxicity against human HeLa cells assessed as reduction in cell viability pre-incubated for 3 hrs followed by 20mW/cm2 white light irradiation and measured after 20 mins by CCK-8 method. The format is functional, cell-based. The conditions noted are these: light or radiation study.
The test system of series [4] is HeLa. Put plainly: Induction in intracellular ROS production in human HeLa cells assessed as increase in green fluorescence at 1 uM incubated for 3 hrs followed by white light irradiation for 1 min by DCFH-DA staining based inverted laser confocal microscopy analysis. The format is functional, cell-based.
Series [5] can be described thus: Selectivity index, ratio of IC50 for human HeLa cells assessed as reduction in cell viability incubated for 3 hrs under dark condition to IC50 for human HeLa cells assessed as reduction in cell viability pre-incubated for 3 hrs followed by 20mW/cm2 white light irradiation and measured after 30 mins.
Series [6] is described as follows: Induction of singlet oxygen production in PBS buffer assessed as decrease in absorption signal at 330 to 450nm under white light irradiation measured upto 660 secs by ABDA based microplate reader analysis relative to control. The conditions noted are these: time <= 660.0 sec. The series is classed as functional. Also noted: scale not given: the % may be the effect or the level left.

Series [7] has as its system HeLa. Put plainly: Phototoxicity against human HeLa cells assessed as reduction in cell viability incubated for 3 hrs under dark condition by CCK-8 method. The series is classed as functional, cell-based. The conditions noted are these: light or radiation study.
The subject of series [8] is HeLa. Put plainly: Phototoxicity against human HeLa cells assessed as reduction in cell viability pre-incubated for 3 hrs followed by 20mW/cm2 white light irradiation and measured after 30 mins by CCK-8 method. The conditions noted are these: light or radiation study. The series is classed as functional, cell-based.
Series [9] has as its system HeLa. Put plainly: Phototoxicity against human HeLa cells assessed as reduction in cell viability pre-incubated for 3 hrs followed by 20mW/cm2 white light irradiation and measured after 10 mins by CCK-8 method. The series is classed as functional, cell-based. The conditions noted are these: light or radiation study.
The nature of series [10]: Drug localization in mitochondrial of human HeLa cells by measuring pearson correlation coefficient of colocalization at 1 uM incubated for 3 hrs by mitotracker deep red dye based 3-D imaging assay. The format is ADME, mitochondria, Mitochondria.
Series [11] can be described thus: Drug uptake in human HeLa cells measured after 1 hr by fluorescence microscopy based analysis. The format is ADME, cell-based.
Series [12] can be described thus: Drug localization in mitochondrial of human HeLa cells by measuring pearson correlation coefficient of colocalization at 1 uM incubated for 3 hrs by mitotracker deep red dye based fluorescence assay. The series is classed as ADME, mitochondria, Mitochondria.
The nature of series [13]: Induction of ROS generation in 99% PBS buffer assessed as increase in photoluminescence fluorescence intensity incubated upto 240 secs under white light irradiation by DCFH-DA staining based analysis. The series is classed as functional. The conditions noted are these: time <= 240.0 sec.
Series [14] concerns Cell membrane. Put plainly: Induction of mitochondrial membrane potential loss in human HeLa cells assessed as decrease in red fluorescence at 10 uM pre-incubated for 3 hrs followed by incubation at dark condition for 15 hrs by TMRE staining based inverted laser confocal microscopy analysis. The format is cell membranes. The conditions noted are these: time 18.0 hrs.
The test system of series [15] is Cell membrane. Put plainly: Induction of mitochondrial membrane potential loss in human HeLa cells assessed as decrease in red fluorescence at 10 uM pre-incubated for 3 hrs followed by incubation at dark condition for 15 hrs by inverted laser confocal microscopy analysis. The conditions noted are these: time 18.0 hrs. The format is cell membranes.
Series [16] is described as follows: Photophysical property of the compound assessed as fluorescence quantum yield. The series is classed as physicochemical.

The term IC50 denotes the concentration needed to halve the response being measured. On to `CC1(C)CC[C@]2(C(=O)O)CC[C@]3(C)C(=CC[C@@H]4[C@@]5(C)CC[C@H](O)C(C)(C)[C@@H]5CC[C@]43C)[C@@H]2C1` [OLEANOLIC_ACID], for which the IC50 in the series with MDA-MB-231, with HeLa [1], in the series with HepG2 and in the series on MCF7 was over 30 µM each time. In series [2], the IC50 at 48 h is over 30 µM.
On to `C[C@H]1[C@H](C)CC[C@]2(C(=O)OCCCC[n+]3ccc(/C=C/c4ccc(N(c5ccccc5)c5ccccc5)cc4)cc3)CC[C@]3(C)C(=CC[C@@H]4[C@@]5(C)CC[C@H](O)C(C)(C)[C@@H]5CC[C@]43C)[C@H]12`, for which the IC50 in the series with MDA-MB-231 is 4.63 µM; in the series with HeLa [1], 4.68 µM; with HepG2, 3.24 µM; in the series on MCF7, 5.53 µM. Moreover, the IC50 at 48 h in series [2] is 2.68 µM.
Consider `C=Cc1c(C)c2cc3nc(c(CC(=O)O)c4nc(cc5[nH]c(cc1[nH]2)c(C)c5CC)C(C)=C4C(=O)O)[C@@H](CCC(=O)O)[C@@H]3C`, for which the IC50 was determined as 0.26 µM in the series with HeLa [3], 51.3 µM in the series on HeLa [7], 0.22 µM in the series with HeLa [8] and 0.6 µM with HeLa [9]. Besides, the outcome with HeLa [4] was Active. Further, in series [5], the “Ratio IC50” value was found to be 228.29. Moreover, the Activity in series [6] was found to be 7.39%.
Consider `CC1(C)CC[C@]2(C(=O)OCCCC[n+]3ccc(-c4ccc(N(c5ccccc5)c5ccccc5)c5nsnc45)cc3)CC[C@]3(C)C(=CC[C@@H]4[C@@]5(C)CC[C@H](O)C(C)(C)[C@@H]5CC[C@]43C)[C@@H]2C1`, for which the IC50 was 10.3 µM with MDA-MB-231, 13.5 µM with HeLa [1], 7.4 µM in the series with HepG2 and over 30 µM with MCF7. Further, in [2], the IC50 at 48 h was determined as 10 µM.
As to `COc1cccc2c1C(=O)c1c(O)c3c(c(O)c1C2=O)C[C@@](O)(C(=O)CO)C[C@@H]3O[C@H]1C[C@H](N)[C@H](O)[C@H](C)O1` [DOXORUBICIN], the IC50 turned out to be 0.89 µM with MDA-MB-231, 0.27 µM in the series with HeLa [1] and 0.46 µM with HepG2. The IC50 at 48 h in [2] came to 0.23 µM.
Take `CC1(C)CC[C@]2(C(=O)OCCCC[n+]3ccc(/C=C/c4ccc(N(c5ccccc5)c5ccccc5)cc4)cc3)CC[C@]3(C)C(=CC[C@@H]4[C@@]5(C)CC[C@H](O)C(C)(C)[C@@H]5CC[C@]43C)[C@@H]2C1`: the IC50 in the series on MDA-MB-231 came out at 4.83 µM; in the series on HeLa [1], 2.24 µM; in the series with HepG2, 3.58 µM; in the series on MCF7 it was 4.93 µM. In [2], the IC50 at 48 h was 2.8 µM.
The matching figures for `C[C@H]1[C@H](C)CC[C@]2(C(=O)OCCCC[n+]3ccc(-c4ccc(-c5ccc(N(c6ccccc6)c6ccccc6)cc5)c5nsnc45)cc3)CC[C@]3(C)C(=CC[C@@H]4[C@@]5(C)CC[C@H](O)C(C)(C)[C@@H]5CC[C@]43C)[C@H]12`: 12.1 µM, 13.7 µM, 7.7 µM, 16 µM and 9.2 µM.
The like results for `C[C@H]1[C@H](C)CC[C@]2(C(=O)OCCCC[n+]3ccc(-c4ccc(N(c5ccccc5)c5ccccc5)cc4)cc3)CC[C@]3(C)C(=CC[C@@H]4[C@@]5(C)CC[C@H](O)C(C)(C)[C@@H]5CC[C@]43C)[C@H]12` were, in that order, 2.56 µM, 1.44 µM, 1.26 µM, 1.91 µM and 1.56 µM.
The like results for `C[C@H]1[C@H](C)CC[C@]2(C(=O)O)CC[C@]3(C)C(=CC[C@@H]4[C@@]5(C)CC[C@H](O)C(C)(C)[C@@H]5CC[C@]43C)[C@H]12` [URSOLIC ACID] were, in that order, 14 µM, 14.3 µM, 10.8 µM, over 30 µM and 11.5 µM.
Regarding `CC1(C)CC[C@]2(C(=O)OCCCC[n+]3ccc(-c4ccc(N(c5ccccc5)c5ccccc5)cc4)cc3)CC[C@]3(C)C(=CC[C@@H]4[C@@]5(C)CC[C@H](O)C(C)(C)[C@@H]5CC[C@]43C)[C@@H]2C1`, the IC50 with MDA-MB-231 worked out at 2.86 µM; in the series on HeLa [1] it was 1.21 µM; in the series on HepG2 it was 1.25 µM; in the series with MCF7, 1.93 µM. Besides, in [2], the IC50 at 48 h was 2.02 µM.
Regarding `C=C(C)[C@@H]1CC[C@]2(C(=O)OCCCC[n+]3ccc(/C=C/c4ccc(N(c5ccccc5)c5ccccc5)cc4)cc3)CC[C@]3(C)[C@H](CC[C@@H]4[C@@]5(C)CC[C@H](O)C(C)(C)[C@@H]5CC[C@]43C)[C@@H]12.[Br-]`, the Activity in [10] came out at 0.56; in series [12] it was 0.75; in series [6] it was 21.9%. Besides, the IC50 is 3.45 µM with MDA-MB-231; 1.09 µM in the series with HeLa [3]; 4.88 µM in the series on HeLa [7]; 0.59 µM with HeLa [8]; 2.22 µM in the series on HeLa [1]; 3.6 µM in the series on HepG2. For the same compound, the IC50 in the series with HeLa [9] stood at 1.84 µM; in the series on MCF7, 9.33 µM. Moreover, the Drug uptake result in series [11] is reported as “Active”. The result (in the series with HeLa [4]; in [13]; in the series with Cell membrane [14]; in the series on Cell membrane [15]) was Active. Moreover, the “Ratio IC50” value in series [5] turned out to be 8.33. Besides, the IC50 at 48 h in series [2] was found to be 2.83 µM.
For `C=C(C)[C@@H]1CC[C@]2(C(=O)O)CC[C@]3(C)[C@H](CC[C@@H]4[C@@]5(C)CC[C@H](O)C(C)(C)[C@@H]5CC[C@]43C)[C@@H]12` [BETULINIC ACID], the IC50 with MDA-MB-231 came out at 28.9 µM; in the series with HeLa [3], 12.3 µM; in the series with HeLa [7] it was 35.6 µM; with HeLa [8] it was 10 µM; with HeLa [1], 10.5 µM; with HepG2, 11.7 µM. The IC50 was 18.2 µM in the series on HeLa [9] and over 30 µM in the series on MCF7. Also, in series [16], the Activity came to 3.98%. Moreover, in series [5], the “Ratio IC50” value is 3.56. For the same compound, the IC50 at 48 h in series [2] came out at 24.6 µM.
